Results from article PMC12289521, “Ligand binding to a Ni–Fe cluster orchestrates conformational changes of the CO-dehydrogenase–acetyl-CoA synthase complex” (Nature Catalysis, 2025).

What was measured:
[1] = biological target: T1, acetyl-CoA synthase (ACS) (Carboxydothermus hydrogenoformans, UniProt Q3ACS4); experiment: ITC of CODH–ACS complex with […] Ti(III)–EDTA, […] °C; format: binding
T1 construct: gene acsB; CODH–ACS complex, heterologously expressed in E. coli; with CO-dehydrogenase (CODH)
T1 sequence (Q3ACS4 1-732): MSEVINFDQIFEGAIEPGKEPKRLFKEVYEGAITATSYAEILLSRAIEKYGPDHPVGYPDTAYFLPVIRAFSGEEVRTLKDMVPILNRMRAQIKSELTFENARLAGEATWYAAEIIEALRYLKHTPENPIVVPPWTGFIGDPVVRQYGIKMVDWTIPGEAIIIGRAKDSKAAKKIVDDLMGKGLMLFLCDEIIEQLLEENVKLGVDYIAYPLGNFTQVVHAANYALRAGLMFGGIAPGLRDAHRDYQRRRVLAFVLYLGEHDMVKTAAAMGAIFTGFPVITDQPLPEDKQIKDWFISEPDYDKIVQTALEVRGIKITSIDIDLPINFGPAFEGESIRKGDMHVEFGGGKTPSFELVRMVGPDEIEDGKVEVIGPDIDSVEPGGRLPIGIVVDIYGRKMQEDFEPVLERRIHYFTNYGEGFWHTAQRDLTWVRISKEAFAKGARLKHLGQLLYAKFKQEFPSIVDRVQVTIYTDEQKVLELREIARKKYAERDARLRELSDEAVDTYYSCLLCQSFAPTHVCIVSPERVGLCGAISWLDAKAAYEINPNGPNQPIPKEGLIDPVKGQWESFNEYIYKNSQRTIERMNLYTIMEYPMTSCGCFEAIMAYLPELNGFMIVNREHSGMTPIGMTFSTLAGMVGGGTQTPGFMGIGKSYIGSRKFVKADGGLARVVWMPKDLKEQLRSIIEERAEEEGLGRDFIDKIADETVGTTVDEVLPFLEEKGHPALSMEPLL

[2] = biological target: T1, acetyl-CoA synthase (ACS); experiment: ITC of methyl transfer to cluster A (two-substrate-two-product fit); format: binding

Compound | Kd [1] | ITC of methyl transfer to cluster A (two-substrate-two-product fit) [2]
CC(C)(COP(=O)(O)OP(=O)(O)OC[C@H]1O[C@@H](n2cnc3c(N)ncnc32)[C@H](O)[C@@H]1OP(=O)(O)O)[C@@H](O)C(=O)NCCC(=O)NCCS [CoA] | < 88 µM | –
methyl cobinamide | – | 341
